Reference: ChEMBL document CHEMBL2434963, “Synthesis and cytotoxic activity of some novel steroidal C-17 pyrazolinyl derivatives” (Eur J Med Chem, 2013)
≈ marks a conversion by molar mass, not a printed value.

Columns and labels:
HepG2 = assay: Cytotoxicity against human HepG2 cells after 48 hrs by MTT assay; type: functional, cell-based; conditions: HepG2, 48 h
HeLa [1] = assay: cells; conditions: Homo sapiens, 48 h
Description: Cytotoxicity against human HeLa cells after 48 hrs by MTT assay

NCI-H460 = assay: Cytotoxicity against human NCI-H460 cells after 48 hrs by MTT assay; type: functional, cell-based; conditions: NCI-H460, 48 h
Artemia salina = assay: Toxicity in Artemia salina larvae after 24 hrs by microscopic analysis; type: functional
HeLa [2] = assay: Cell cycle arrest in human HeLa cells assessed as accumulation at G2/M phase at 40 ug/ml after 24 hrs by propidium iodide staining-based flow cytometry (reference value: 11.7%); type: functional
HeLa [3] = assay: Cell cycle arrest in human HeLa cells assessed as accumulation at G2/M phase at 10 ug/ml after 24 hrs by propidium iodide staining-based flow cytometry (reference value: 11.7%); type: functional
HeLa [4] = assay: Cell cycle arrest in human HeLa cells assessed as accumulation at S phase at 10 ug/ml after 24 hrs by propidium iodide staining-based flow cytometry (reference value: 20.6%); type: functional
HeLa [5] = assay: Cell cycle arrest in human HeLa cells assessed as accumulation at S phase at 40 ug/ml after 24 hrs by propidium iodide staining-based flow cytometry (reference value: 20.6%); type: functional
HeLa [6] = assay: Cell cycle arrest in human HeLa cells assessed as accumulation at G0/G1 phase at 40 ug/ml after 24 hrs by propidium iodide staining-based flow cytometry (reference value: 67.7%); type: functional
HeLa [7] = assay: Cell cycle arrest in human HeLa cells assessed as accumulation at G0/G1 phase at 20 ug/ml after 24 hrs by propidium iodide staining-based flow cytometry (reference value: 67.7%); type: functional
HeLa [8] = assay: Cell cycle arrest in human HeLa cells assessed as accumulation at S phase at 20 ug/ml after 24 hrs by propidium iodide staining-based flow cytometry (reference value: 20.6%); type: functional
HeLa [9] = assay: Cell cycle arrest in human HeLa cells assessed as accumulation at G0/G1 phase at 10 ug/ml after 24 hrs by propidium iodide staining-based flow cytometry (reference value: 67.7%); type: functional
HeLa [10] = assay: Cell cycle arrest in human HeLa cells assessed as accumulation at G2/M phase at 20 ug/ml after 24 hrs by propidium iodide staining-based flow cytometry (reference value: 11.7%); type: functional

Row | SMILES | IC50 (HepG2) [µg/mL] | IC50 (HeLa [1]) [µg/mL] | IC50 (NCI-H460) [µg/mL] | LC50 (Artemia salina) [µg/mL] | other results
1 | CC(=O)N1N=C([C@H]2CC[C@H]3[C@@H]4CCC5=C(Cl)C(=O)C=C[C@]5(C)[C@H]4CC[C@]23C)CC1c1ccccc1 (some centres undefined) | 17.3 (≈ 35.2 µM) | 13.7 (≈ 27.9 µM) | 13.1 (≈ 26.7 µM) | 4.99 (≈ 10.2 µM) | 
2 | COc1ccc(C2CC([C@H]3CC[C@H]4[C@@H]5CCC6=CC(=O)C=C[C@]6(C)[C@H]5CC[C@]34C)=NN2C(C)=O)cc1 (some centres undefined) |  | > 50 |  | > 50 | 
3 | CC(=O)N1N=C([C@H]2CC[C@H]3[C@@H]4CCC5=CC(=O)C=C[C@]5(C)[C@H]4CC[C@]23C)CC1c1ccccc1 (some centres undefined) |  | > 50 |  | 18.9 (≈ 41.5 µM) | 
4 | CC(=O)[C@H]1CC[C@H]2[C@@H]3CCC4=C(Cl)C(=O)C=C[C@]4(C)[C@H]3CC[C@]12C | > 50 | > 50 | 26.7 (≈ 77 µM) | > 100 | 
5 | CC(=O)N1N=C([C@H]2CC[C@H]3[C@@H]4CCC5=C(Cl)C(=O)C=C[C@]5(C)[C@H]4CC[C@]23C)CC1c1ccccc1Cl (mixture of isomers) | 24.3 | 12.5 | 10.3 | 5.65 | Activity (HeLa [2]): 11.3%; Activity (HeLa [3]): 9.9%; Activity (HeLa [4]): 34.3%; Activity (HeLa [5]): 41.1%; Activity (HeLa [6]): 47.6%; Activity (HeLa [7]): 51.4%; Activity (HeLa [8]): 38.9%; Activity (HeLa [9]): 55.8%; Activity (HeLa [10]): 9.7%
6 | CC(=O)N1N=C([C@H]2CC[C@H]3[C@@H]4CCC5=CC(=O)C=C[C@]5(C)[C@H]4CC[C@]23C)CC1c1ccccc1[N+](=O)[O-] (some centres undefined) |  | > 50 |  | 30.2 (≈ 60.2 µM) | 
7 | CC(=O)N1N=C([C@H]2CC[C@H]3[C@@H]4CCC5=CC(=O)C=C[C@]5(C)[C@H]4CC[C@]23C)CC1c1ccccc1Cl (some centres undefined) |  | > 50 |  | 21.7 (≈ 44.2 µM) | 
8 | COc1ccccc1C1CC([C@H]2CC[C@H]3[C@@H]4CCC5=CC(=O)C=C[C@]5(C)[C@H]4CC[C@]23C)=NN1C(C)=O (some centres undefined) |  | > 50 |  | 44.9 (≈ 92.2 µM) | 
9 | O=c1[nH]cc(F)c(=O)[nH]1 [FLUOROURACIL] |  | 0.887 (≈ 6.82 µM) | 2.48 (≈ 19.1 µM) |  | 
10 | CC(=O)N1N=C([C@H]2CC[C@H]3[C@@H]4CCC5=C(Cl)C(=O)C=C[C@]5(C)[C@H]4CC[C@]23C)CC1c1ccc([N+](=O)[O-])cc1 (some centres undefined) | > 50 | > 50 | > 50 | 8.43 (≈ 15.7 µM) | 
11 | CC(=O)[C@H]1CC[C@H]2[C@@H]3CCC4=CC(=O)CC[C@]4(C)[C@H]3CC[C@]12C [PROGESTERONE] |  | > 50 |  | > 100 | 
12 | CC(=O)N1N=C([C@H]2CC[C@H]3[C@@H]4CCC5=CC(=O)C=C[C@]5(C)[C@H]4CC[C@]23C)CC1c1ccc(Cl)cc1 (some centres undefined) |  | > 50 |  | 36.6 (≈ 74.6 µM) | 
13 | CC(=O)N1N=C([C@H]2CC[C@H]3[C@@H]4CCC5=C(Cl)C(=O)C=C[C@]5(C)[C@H]4CC[C@]23C)CC1c1ccc(Cl)cc1 (some centres undefined) | 25.3 (≈ 48.1 µM) | 26.6 (≈ 50.6 µM) | 13.9 (≈ 26.4 µM) | 10.4 (≈ 19.8 µM) | 
14 | COc1ccc(C2CC([C@H]3CC[C@H]4[C@@H]5CCC6=C(Cl)C(=O)C=C[C@]6(C)[C@H]5CC[C@]34C)=NN2C(C)=O)cc1 (mixture of isomers) | 16.9 | 19.7 | 17.9 | 27.3 | 
15 | CC(=O)N1N=C([C@H]2CC[C@H]3[C@@H]4CCC5=C(Cl)C(=O)C=C[C@]5(C)[C@H]4CC[C@]23C)CC1c1ccccc1[N+](=O)[O-] (some centres undefined) | > 50 | > 50 | 14.8 (≈ 27.6 µM) | 7.7 (≈ 14.4 µM) | 
16 | CC(=O)N1N=C([C@H]2CC[C@H]3[C@@H]4CCC5=CC(=O)C=C[C@]5(C)[C@H]4CC[C@]23C)CC1c1ccc([N+](=O)[O-])cc1 (some centres undefined) |  | > 50 |  | 38.2 (≈ 76.1 µM) | 
17 | COc1ccccc1C1CC([C@H]2CC[C@H]3[C@@H]4CCC5=C(Cl)C(=O)C=C[C@]5(C)[C@H]4CC[C@]23C)=NN1C(C)=O (mixture of isomers) | 16.2 | 15.3 | 15.7 | 9.92 | 
